Tests used:
Format in all cases: in vivo
Barnyard Grass = test: Postemergent activity
Procedure: (§1) Representative compositions of the present invention were evaluated for the postemergence control of species of plants listed in Table A. In these evaluations, pots of the plant species listed in Table A, grown to a height of about 10 cms, were used. Aqueous spray compositions, containing various amounts of 2-[4-(2-fluoro-4-trifluoromethylphenoxy)-phenoxy]propionic acid methy ester, i.e., 125 ppm, 62.5 ppm, 31.25 ppm, 15.6 ppm, 7.8 ppm and 3.9 ppm, respectively, were applied to separate pots. The spray compositions were made by mixing the active ingredient in acetone to 1/2 the final volume, i.e., twice the final concentration. An equal amount of water was added to the active ingredient/acetone mixture wherein the water contained 0.1 percent by weight of TWEEN® 200 surfactant. The application to the plants was made to the point of run-off and was carried out with conventional spraying equipment. Other pots were sprayed with similar compositions containing no toxicant to serve as controls. Thereafter, the pots were maintained under conditions conducive for plant growth. Two weeks after treatment, the pots were examined for plant growth and evaluated on a scale of 0 to 100 where 0 represents no effect and 100 represents complete kill. The results of the examination of the treated pots are set forth below in Table A.
(§2) Substantially the same procedures as those described in Example A were repeated except that the active ingredients were 2-[4-(4-chloro-2-fluorophenoxy)phenoxy]propionic acid; methyl ester and its R-enantiomer and 2-(4-(4-bromo-2-fluorophenoxy)phenoxy propionic acid; methyl ester and its R enantiomer. The results are listed below in Table B.
(§3) In further operations employing the above general procedures and the indicated test compounds the following results were obtained: […]

Crabgrass = test: Postemergent activity
Procedure: as §1, §2, §3

Wheat = test: Postemergent activity; details: Triticum aestivum, post-emergence, 336 h, read-out: % Control
Procedure: as §1, §2, §3

Wild Oats = test: Postemergent activity; details: Avena fatua, post-emergence, 336 h; for pest or weed control at 7.8 ppm / pest or weed control at 15.6 ppm / pest or weed control at 62.5 ppm / pest or weed control at 125 ppm / pest or weed control at 250 ppm: read-out: % Control
Procedure: as §1, §2, §3

Foxtail [1] = test: Postemergent control of plant species
Procedure: as §1, §3

Foxtail [2] = test: Postemergent control of plant species; details: 250 ppm

| Structure (SMILES) | % Control (Barnyard Grass; 7.8 ppm) | % Control (Barnyard Grass; 15.6 ppm) | % Control (Barnyard Grass; 31.2 ppm) | % Control (Barnyard Grass; 62.5 ppm) | % Control (Barnyard Grass; 125 ppm) | % Control (Barnyard Grass; 250 ppm) | % Control (Crabgrass; 7.8 ppm) | % Control (Crabgrass; 15.6 ppm) | % Control (Crabgrass; 31.2 ppm) | % Control (Crabgrass; 62.5 ppm) | % Control (Crabgrass; 125 ppm) | plant injury at 7.8 ppm (Wheat) | plant injury at 15.6 ppm (Wheat) | plant injury at 31.2 ppm (Wheat) | pest or weed control at 7.8 ppm (Wild Oats) | pest or weed control at 15.6 ppm (Wild Oats) | pest or weed control at 31.2 ppm (Wild Oats) | pest or weed control at 62.5 ppm (Wild Oats) | pest or weed control at 125 ppm (Wild Oats) | pest or weed control at 250 ppm (Wild Oats) | further results |
| --- | --- | --- | --- | --- | --- | --- | --- | --- | --- | --- | --- | --- | --- | --- | --- | --- | --- | --- | --- | --- | --- |
| CCOC(=O)CC(O)C(C)Oc1ccc(Oc2ccc(Br)cc2F)cc1 (centres unmarked) | 0% | 0% | 80% | 100% | 100% | 100% | 0% | 20% | 20% | 100% | 100% | 0% | 0% | 0% | 0% | 0% | 0% | 0% | 50% | 50% | % Control (Crabgrass; 250 ppm): 100%; plant injury at 62.5 ppm (Wheat): 0%; Percent Control (Foxtail [1]; 7.8 ppm): 0%; Percent Control (Foxtail [1]; 15.6 ppm): 0%; Percent Control (Foxtail [1]; 31.2 ppm): 0%; Percent Control (Foxtail [1]; 62.5 ppm): 100%; Percent Control (Foxtail [1]; 125 ppm): 100%; Percent Control (Foxtail [2]): 100% |
| CC(=O)C(C(C)=O)C(=O)C(C)Oc1ccc(Oc2ccc(Br)cc2F)cc1 (centres unmarked) | 0% | 0% | 0% | 100% | 100% | 100% | 0% | 70% | 100% | 100% | 100% | 0% | 0% | 0% | 0% | 0% | 0% | 0% | 0% | 50% | % Control (Crabgrass; 250 ppm): 100%; Percent Control (Foxtail [1]; 7.8 ppm): 0%; Percent Control (Foxtail [1]; 15.6 ppm): 0%; Percent Control (Foxtail [1]; 31.2 ppm): 100%; Percent Control (Foxtail [1]; 62.5 ppm): 100%; Percent Control (Foxtail [1]; 125 ppm): 100%; Percent Control (Foxtail [2]): 100% |
| C=CC(=O)C(C)Oc1ccc(Oc2ccc(Br)cc2F)cc1 (centres unmarked) | 0% | 0% | 0% | 0% | 0% | 30% | 0% | 0% | 0% | 100% | 98% | 0% | 0% | 0% | 0% | 0% | 0% | 0% | 0% | 0% | % Control (Crabgrass; 250 ppm): 98%; plant injury at 62.5 ppm (Wheat): 0%; plant injury at 125 ppm (Wheat): 0%; plant injury at 250 ppm (Wheat): 0%; Percent Control (Foxtail [1]; 7.8 ppm): 0%; Percent Control (Foxtail [1]; 15.6 ppm): 0%; Percent Control (Foxtail [1]; 31.2 ppm): 0%; Percent Control (Foxtail [1]; 62.5 ppm): 0%; Percent Control (Foxtail [1]; 125 ppm): 0%; Percent Control (Foxtail [2]): 100% |
| COC(=O)C=C(OC)C(C)Oc1ccc(Oc2ccc(Br)cc2F)cc1 (centres unmarked) | 0% | 0% | 0% | 0% | 0% | 0% | 0% | 0% | 20% | 95% | 98% | 0% | 0% | 0% | 0% | 0% | 0% | 0% | 0% | 0% | % Control (Crabgrass; 250 ppm): 100%; plant injury at 62.5 ppm (Wheat): 0%; plant injury at 125 ppm (Wheat): 0%; plant injury at 250 ppm (Wheat): 0%; Percent Control (Foxtail [1]; 7.8 ppm): 0%; Percent Control (Foxtail [1]; 15.6 ppm): 0%; Percent Control (Foxtail [1]; 31.2 ppm): 0%; Percent Control (Foxtail [1]; 62.5 ppm): 0%; Percent Control (Foxtail [1]; 125 ppm): 0%; Percent Control (Foxtail [2]): 100% |
| CC(=O)CC(O)C(C)Oc1ccc(Oc2ccc(Br)cc2F)cc1 (centres unmarked) | 0% | 0% | 0% | 0% | 0% | 0% | 0% | 0% | 0% | 95% | 95% | 0% | 0% | 0% | 0% | 0% | 0% | 0% | 0% | 0% | plant injury at 62.5 ppm (Wheat): 0%; plant injury at 125 ppm (Wheat): 0%; Percent Control (Foxtail [1]; 7.8 ppm): 0%; Percent Control (Foxtail [1]; 15.6 ppm): 0%; Percent Control (Foxtail [1]; 31.2 ppm): 0%; Percent Control (Foxtail [1]; 62.5 ppm): 0%; Percent Control (Foxtail [1]; 125 ppm): 20%; Percent Control (Foxtail [2]): 25% |
